Here are results for 4 compounds from ChEMBL document CHEMBL1153704, “Imidazo[1,2-a]pyrazine diaryl ureas: inhibitors of the receptor tyrosine kinase EphB4” (Bioorg Med Chem Lett, 2009).

For test [1], the target named is T1, Angiopoietin-1 receptor (Homo sapiens, UniProt Q02763). As to the kind of experiment: Inhibition of Tie2 autophosphorylation by cell based assay.
Test [2] concerns the target T1, Angiopoietin-1 receptor. As to the kind of experiment: Inhibition of Tie2 after 1 hr.
Test [3] deals with Tyrosine-protein kinase BTK (Homo sapiens, UniProt Q06187). As to the kind of experiment: Inhibition of Btk after 1 hr.
The target of test [4] is T2, Receptor-type tyrosine-protein kinase FLT3 (Homo sapiens, UniProt P36888).
T2 sequence (P36888 whole entry): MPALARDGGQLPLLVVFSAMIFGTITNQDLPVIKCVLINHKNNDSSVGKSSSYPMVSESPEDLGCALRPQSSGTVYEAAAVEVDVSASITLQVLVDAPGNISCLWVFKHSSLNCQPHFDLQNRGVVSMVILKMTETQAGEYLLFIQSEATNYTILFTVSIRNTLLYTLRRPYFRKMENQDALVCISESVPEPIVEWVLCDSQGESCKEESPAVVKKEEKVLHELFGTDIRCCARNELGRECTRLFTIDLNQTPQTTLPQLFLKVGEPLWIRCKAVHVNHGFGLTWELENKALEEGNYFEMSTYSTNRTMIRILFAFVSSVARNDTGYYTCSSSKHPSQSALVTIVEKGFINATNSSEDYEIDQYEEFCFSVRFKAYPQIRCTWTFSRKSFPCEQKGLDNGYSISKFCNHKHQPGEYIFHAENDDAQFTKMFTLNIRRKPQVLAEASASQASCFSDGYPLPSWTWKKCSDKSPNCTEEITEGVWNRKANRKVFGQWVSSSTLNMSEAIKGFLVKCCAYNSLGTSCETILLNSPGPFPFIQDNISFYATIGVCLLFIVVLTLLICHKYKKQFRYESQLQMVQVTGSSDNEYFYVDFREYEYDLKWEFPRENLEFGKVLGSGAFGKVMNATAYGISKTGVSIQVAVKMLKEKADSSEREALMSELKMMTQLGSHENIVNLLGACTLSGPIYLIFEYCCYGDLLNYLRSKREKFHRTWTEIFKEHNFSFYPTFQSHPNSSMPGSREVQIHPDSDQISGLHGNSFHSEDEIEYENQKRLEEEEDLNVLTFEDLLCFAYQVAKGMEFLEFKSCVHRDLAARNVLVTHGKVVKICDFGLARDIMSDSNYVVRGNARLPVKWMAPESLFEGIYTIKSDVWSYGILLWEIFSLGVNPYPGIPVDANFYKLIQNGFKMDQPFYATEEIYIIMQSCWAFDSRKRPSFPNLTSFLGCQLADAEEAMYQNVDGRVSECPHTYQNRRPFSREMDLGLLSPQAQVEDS
The experiment in a line: Inhibition of Flt3 after 1 hr.

The target of test [5] is Platelet-derived growth factor receptor beta (Homo sapiens, UniProt P09619). The experiment in a line: Inhibition of PDGFRbeta after 1 hr.
Test [6] addresses Vascular endothelial growth factor receptor 2 (Homo sapiens, UniProt P35968). The experiment in a line: Inhibition of VEGFR2 after 1 hr.
The target of test [7] is Vascular endothelial growth factor receptor 1 (Homo sapiens, UniProt P17948). The experiment in a line: Inhibition of VEGFR1 after 1 hr.
Test [8] concerns the target Ephrin type-A receptor 2 (Homo sapiens, UniProt P29317). The experiment in a line: Inhibition of EPHA2 after 1 hr.
For test [9], the target named is T3, Ephrin type-B receptor 4 (Homo sapiens, UniProt P54760).
T3 sequence (P54760 whole entry): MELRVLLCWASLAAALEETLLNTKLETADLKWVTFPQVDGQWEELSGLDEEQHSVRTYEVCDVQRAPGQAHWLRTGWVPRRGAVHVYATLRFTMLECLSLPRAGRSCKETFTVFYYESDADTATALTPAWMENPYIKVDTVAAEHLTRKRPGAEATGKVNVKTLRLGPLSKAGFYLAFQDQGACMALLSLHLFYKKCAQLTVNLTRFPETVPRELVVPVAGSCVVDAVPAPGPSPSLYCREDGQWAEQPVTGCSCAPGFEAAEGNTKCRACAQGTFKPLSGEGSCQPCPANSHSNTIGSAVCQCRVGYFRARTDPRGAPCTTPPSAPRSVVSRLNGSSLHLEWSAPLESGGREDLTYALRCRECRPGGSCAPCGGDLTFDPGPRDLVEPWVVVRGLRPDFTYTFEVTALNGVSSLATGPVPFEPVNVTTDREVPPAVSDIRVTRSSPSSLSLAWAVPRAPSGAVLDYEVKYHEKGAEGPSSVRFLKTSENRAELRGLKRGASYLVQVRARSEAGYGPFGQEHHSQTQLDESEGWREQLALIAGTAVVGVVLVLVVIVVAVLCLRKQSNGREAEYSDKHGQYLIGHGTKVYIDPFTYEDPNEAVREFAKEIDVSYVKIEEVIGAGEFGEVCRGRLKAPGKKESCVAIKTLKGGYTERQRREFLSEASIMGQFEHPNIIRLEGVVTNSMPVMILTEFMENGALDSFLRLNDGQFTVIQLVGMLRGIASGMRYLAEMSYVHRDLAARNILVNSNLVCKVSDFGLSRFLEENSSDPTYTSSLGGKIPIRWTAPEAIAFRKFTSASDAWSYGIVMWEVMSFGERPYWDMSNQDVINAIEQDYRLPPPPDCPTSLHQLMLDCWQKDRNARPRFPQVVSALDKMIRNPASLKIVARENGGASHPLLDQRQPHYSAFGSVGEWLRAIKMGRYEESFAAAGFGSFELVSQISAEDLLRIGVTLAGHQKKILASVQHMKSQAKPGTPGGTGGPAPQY
The experiment in a line: Inhibition of EphB4 after 1 hr.

Test [10] deals with Tyrosine-protein kinase ABL1 (Homo sapiens, UniProt P00519). The experiment in a line: Inhibition of Abl1 after 1 hr.
Test [11] deals with Vascular endothelial growth factor receptor 3 (Homo sapiens, UniProt P35916). As to the kind of experiment: Inhibition of VEGFR3 after 1 hr.
In test [12] the target is Tyrosine-protein kinase Lyn (Homo sapiens, UniProt P07948). As to the kind of experiment: Inhibition of Lyn after 1 hr.
Tyrosine-protein kinase Lyn, sequence (P07948 whole entry): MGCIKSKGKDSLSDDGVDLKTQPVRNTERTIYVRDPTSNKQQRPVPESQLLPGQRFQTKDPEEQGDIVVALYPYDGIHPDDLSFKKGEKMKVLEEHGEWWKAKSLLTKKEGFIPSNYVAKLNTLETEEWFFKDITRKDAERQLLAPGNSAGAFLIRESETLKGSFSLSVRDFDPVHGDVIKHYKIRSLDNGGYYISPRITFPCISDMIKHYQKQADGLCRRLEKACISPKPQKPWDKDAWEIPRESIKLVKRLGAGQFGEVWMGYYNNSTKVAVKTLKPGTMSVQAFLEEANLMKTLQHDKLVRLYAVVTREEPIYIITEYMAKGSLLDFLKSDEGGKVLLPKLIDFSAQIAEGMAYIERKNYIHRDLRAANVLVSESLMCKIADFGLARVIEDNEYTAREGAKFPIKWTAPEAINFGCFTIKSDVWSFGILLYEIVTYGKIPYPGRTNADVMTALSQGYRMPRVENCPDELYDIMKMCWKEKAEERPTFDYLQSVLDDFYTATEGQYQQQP

T1 sequence (Q02763 whole entry): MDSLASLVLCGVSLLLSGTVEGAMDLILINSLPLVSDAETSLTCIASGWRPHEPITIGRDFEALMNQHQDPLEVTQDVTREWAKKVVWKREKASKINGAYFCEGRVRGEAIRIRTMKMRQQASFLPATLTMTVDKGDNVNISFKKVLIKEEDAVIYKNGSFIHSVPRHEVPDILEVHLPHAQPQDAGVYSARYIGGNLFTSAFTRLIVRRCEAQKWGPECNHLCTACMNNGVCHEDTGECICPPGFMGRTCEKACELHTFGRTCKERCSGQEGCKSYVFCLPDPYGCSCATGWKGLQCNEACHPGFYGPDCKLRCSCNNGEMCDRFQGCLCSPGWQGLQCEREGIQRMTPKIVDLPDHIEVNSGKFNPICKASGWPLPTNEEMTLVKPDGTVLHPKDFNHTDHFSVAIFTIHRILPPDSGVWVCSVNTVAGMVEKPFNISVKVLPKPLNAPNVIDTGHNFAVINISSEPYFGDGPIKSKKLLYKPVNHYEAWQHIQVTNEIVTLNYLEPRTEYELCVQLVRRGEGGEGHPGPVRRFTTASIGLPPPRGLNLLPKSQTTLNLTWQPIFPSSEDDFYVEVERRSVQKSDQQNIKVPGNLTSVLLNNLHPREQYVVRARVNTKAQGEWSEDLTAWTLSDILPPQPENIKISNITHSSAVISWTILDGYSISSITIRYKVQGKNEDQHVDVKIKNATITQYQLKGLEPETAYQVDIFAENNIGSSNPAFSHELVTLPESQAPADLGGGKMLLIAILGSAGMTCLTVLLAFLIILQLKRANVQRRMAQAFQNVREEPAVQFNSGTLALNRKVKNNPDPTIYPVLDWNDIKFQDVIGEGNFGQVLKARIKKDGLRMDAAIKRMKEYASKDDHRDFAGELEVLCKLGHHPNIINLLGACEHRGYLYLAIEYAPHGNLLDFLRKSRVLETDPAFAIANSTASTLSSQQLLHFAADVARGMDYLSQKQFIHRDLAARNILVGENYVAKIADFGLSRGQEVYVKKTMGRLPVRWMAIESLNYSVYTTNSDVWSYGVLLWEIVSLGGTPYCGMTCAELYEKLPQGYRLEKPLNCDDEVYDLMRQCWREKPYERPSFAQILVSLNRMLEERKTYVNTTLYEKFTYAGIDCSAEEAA
Tyrosine-protein kinase ABL1, sequence (P00519 whole entry): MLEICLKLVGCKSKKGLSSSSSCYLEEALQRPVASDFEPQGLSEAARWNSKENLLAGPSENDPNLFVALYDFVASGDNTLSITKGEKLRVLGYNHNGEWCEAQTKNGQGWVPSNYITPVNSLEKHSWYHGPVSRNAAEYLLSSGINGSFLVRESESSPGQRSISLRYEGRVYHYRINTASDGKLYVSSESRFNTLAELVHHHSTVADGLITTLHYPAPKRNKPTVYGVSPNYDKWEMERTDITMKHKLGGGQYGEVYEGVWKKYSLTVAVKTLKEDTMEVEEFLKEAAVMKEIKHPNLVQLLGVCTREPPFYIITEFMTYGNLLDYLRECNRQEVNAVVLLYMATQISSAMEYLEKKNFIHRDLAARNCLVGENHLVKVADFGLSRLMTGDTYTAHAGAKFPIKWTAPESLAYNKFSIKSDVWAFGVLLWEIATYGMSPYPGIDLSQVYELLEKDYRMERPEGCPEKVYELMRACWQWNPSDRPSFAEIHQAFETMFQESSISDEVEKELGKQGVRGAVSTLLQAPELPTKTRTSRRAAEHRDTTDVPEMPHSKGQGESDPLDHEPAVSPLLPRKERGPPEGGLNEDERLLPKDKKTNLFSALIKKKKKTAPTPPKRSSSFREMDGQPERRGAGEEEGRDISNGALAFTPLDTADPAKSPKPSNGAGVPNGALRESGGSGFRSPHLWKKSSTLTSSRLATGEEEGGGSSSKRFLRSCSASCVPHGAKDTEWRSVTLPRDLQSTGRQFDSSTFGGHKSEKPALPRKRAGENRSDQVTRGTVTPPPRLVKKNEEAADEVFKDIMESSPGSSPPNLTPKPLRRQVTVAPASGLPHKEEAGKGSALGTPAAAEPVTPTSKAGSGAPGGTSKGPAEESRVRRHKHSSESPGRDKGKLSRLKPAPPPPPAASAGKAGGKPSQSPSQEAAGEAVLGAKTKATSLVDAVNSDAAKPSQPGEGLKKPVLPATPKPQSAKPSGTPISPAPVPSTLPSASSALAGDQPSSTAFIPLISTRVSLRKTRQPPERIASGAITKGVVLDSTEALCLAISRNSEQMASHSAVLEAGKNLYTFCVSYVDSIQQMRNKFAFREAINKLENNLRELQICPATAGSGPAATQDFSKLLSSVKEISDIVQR
Vascular endothelial growth factor receptor 3, sequence (P35916 whole entry): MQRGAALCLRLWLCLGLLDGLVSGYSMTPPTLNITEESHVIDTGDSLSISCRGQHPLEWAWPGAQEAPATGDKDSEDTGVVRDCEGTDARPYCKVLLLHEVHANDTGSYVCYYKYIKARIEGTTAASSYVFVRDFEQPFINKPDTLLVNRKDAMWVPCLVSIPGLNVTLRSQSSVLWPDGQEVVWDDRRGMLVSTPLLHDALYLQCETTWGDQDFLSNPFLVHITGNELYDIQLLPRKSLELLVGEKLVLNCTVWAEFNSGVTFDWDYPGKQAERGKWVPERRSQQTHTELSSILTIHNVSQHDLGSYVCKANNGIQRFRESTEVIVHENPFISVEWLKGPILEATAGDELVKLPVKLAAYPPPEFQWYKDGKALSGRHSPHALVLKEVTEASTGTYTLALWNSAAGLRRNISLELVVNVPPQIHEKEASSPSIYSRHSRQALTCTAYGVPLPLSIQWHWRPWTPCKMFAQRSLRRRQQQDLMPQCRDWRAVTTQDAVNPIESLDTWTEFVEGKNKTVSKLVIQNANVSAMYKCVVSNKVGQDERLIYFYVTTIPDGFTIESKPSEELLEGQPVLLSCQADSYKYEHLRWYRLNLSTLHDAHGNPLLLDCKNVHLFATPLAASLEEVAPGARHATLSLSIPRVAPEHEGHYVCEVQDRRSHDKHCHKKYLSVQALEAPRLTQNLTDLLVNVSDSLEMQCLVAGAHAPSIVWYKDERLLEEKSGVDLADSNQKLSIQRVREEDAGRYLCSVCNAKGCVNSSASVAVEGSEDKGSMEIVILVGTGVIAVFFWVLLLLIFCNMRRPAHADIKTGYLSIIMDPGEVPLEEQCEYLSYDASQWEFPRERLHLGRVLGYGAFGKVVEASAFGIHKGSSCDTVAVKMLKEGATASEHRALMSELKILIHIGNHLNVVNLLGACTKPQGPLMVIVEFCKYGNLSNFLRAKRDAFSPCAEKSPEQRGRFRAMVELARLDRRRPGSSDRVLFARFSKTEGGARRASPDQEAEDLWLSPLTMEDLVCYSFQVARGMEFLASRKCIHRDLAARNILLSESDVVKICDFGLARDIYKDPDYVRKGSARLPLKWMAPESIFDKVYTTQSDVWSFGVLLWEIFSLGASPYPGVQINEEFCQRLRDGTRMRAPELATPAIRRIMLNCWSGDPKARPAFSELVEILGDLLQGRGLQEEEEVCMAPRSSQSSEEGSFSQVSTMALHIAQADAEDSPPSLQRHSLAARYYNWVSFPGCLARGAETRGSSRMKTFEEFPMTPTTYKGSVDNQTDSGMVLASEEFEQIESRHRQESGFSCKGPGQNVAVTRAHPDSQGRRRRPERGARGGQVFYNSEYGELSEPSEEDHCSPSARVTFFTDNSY
Tyrosine-protein kinase BTK, sequence (Q06187 whole entry): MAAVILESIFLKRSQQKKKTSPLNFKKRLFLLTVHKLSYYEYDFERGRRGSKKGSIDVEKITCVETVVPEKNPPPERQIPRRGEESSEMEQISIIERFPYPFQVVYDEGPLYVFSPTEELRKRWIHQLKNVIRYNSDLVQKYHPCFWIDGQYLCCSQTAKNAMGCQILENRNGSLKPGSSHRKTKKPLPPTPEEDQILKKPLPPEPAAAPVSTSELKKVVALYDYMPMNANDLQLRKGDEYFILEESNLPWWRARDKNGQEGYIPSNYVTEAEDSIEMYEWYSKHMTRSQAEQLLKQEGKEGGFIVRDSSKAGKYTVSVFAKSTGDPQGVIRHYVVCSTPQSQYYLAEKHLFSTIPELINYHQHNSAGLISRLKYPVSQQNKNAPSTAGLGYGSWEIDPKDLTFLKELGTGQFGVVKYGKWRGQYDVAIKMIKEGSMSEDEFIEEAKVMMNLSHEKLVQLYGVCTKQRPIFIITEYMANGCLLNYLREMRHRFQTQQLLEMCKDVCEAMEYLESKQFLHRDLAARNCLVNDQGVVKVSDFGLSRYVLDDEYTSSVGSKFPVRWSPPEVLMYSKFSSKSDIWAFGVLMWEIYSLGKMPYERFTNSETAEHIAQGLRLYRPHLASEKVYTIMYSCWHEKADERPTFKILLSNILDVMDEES

The IC50 is the midpoint of a concentration-inhibition curve. Regarding `COc1ccc(Br)cc1NC(=O)Nc1cccc(-c2cn3ccnc3c(NCc3ccncc3)n2)c1`, the half-inhibitory concentration (IC50) in test [1] turned out to be 250 nM; in [2], 75 nM.
The like results for `O=C(Nc1cccc(-c2cn3ccnc3c(NCc3ccncc3)n2)c1)Nc1cc(C(F)(F)F)ccc1F` were, in that order, 100 nM and 37 nM.
The like results for `COc1ccc(C(F)(F)F)cc1NC(=O)Nc1cccc(-c2cn3ccnc3c(NCc3ccncc3)n2)c1` were, in that order, 50 nM and 33 nM.
`O=C(Nc1cccc(-c2cn3ccnc3c(NCc3ccncc3)n2)c1)Nc1cccc(C(F)(F)F)c1`: the IC50 in test [3] was found to be 7800 nM; in [4], 2000 nM; in [5] it was 7700 nM; in test [6] it was 33 nM; in test [7], 747 nM; in [8], 35 nM. Moreover, the IC50 in test [2] was determined as 67 nM; in test [9], 62 nM; in [10], 14400 nM; in [11] it was 71 nM; in [12], 6000 nM.
